Reference: patent US4469701A, “Pyrrolid-3-en-2-ones and pharmaceutical methods of use thereof” (Stauffer Chemical Company, priority 1983, dated 1984)
Where two headings read alike, the source gives them in different places.

Assays:
mice [1] = test: Central anticholinergic: oxotremorine tremors in mice; details: Mus musculus, ip, 1 h, read-out: ED-100, central anticholinergic
mice [2] = test: Acute toxicity / autonomic effects observation; details: mouse, in vivo
Procedure: Mice were dosed at 300 mg/kg, per oral (p.o.) and […], interperitoneal (i.p.) for observation of any acute toxic symptoms or autonomic effects during the subsequent 72 hours. If none were noted, pharmacological evaluation proceeded employing doses and concentrations for each test based on appropriate multiples of doses required by suitable reference compounds. If acute toxicity was observed initially, the minimal toxic dose was determined and pharmacological screening doses were reduced proportionately.

rats [3] = test: Antiulcer: stress induced gastric ulcers in rats; type: in vivo, rat; details: for inhibition in vivo at 50 mg/kg / ED100: Rattus norvegicus; for inhibition in vivo at 50 mg/kg: 4 hr. following a 50 mg/kg oral dose in rats, significance >60, read-out: U = Antiulcerative: percent inhibition of stress ulcers; for Antiulcer effect, in words: rat, in vivo; for ED100: po, read-out: ED-100, antiulcer
Procedure: Fasted rats were dosed, p.o., 30 minutes before immobilization in wire mesh and partial immersion in water for 4 hours. Inhibition of the resulting stress induced gastric ulcers by more than 60% (>60) indicates activity.
^6 U = Antiulcerative. Percent inhibition of stress ulcers 4 hr.
following a 50 mg/kg oral dose in rats.

[4] = test system: hypercholesterolemic mice; test: Hypocholesterolemic: serum cholesterol in hypercholesterolemic mice; type: in vivo, mouse; details: Mus musculus, hypercholesterolemic mice; for inhibition in vivo at 200 mg/kg: 2 oral doses of 200 mg/kg 20 hr. apart, significance >20, read-out: C = Hypocholesterolemic: percent decrease in serum cholesterol
Procedure: Mice made hypercholesterolemic by being fed a high cholesterol-cholic acid diet for 7 days were dosed on the sixth and seventh days, p.o. After fasting overnight, reduction in serum cholesterol concentration by more than 15% (>15) from hypercholesterolemic control mice indicates activity.
^4 C = Hypocholesterolemic. Percent decrease in serum cholesterol in
hypercholesterolemic mice given 2 oral doses of 200 mg/kg drug candidate

[5] = test system: spontaneously hypertensive rats (SHR); test: Antihypertensive: blood pressure (tail cuff) in spontaneously hypertensive rats (SHR); type: in vivo, rat; details: for inhibition in vivo at 100 mg/kg / ED100: Rattus norvegicus; for inhibition in vivo at 100 mg/kg: 6 hr. after a 100 mg/kg oral dose, significance >10, read-out: Antihypertensive: percent decrease in systolic blood pressure in spontaneously hypertensive rats; for ED100: po, read-out: ED-100, antihypertensive
Procedure: Blood pressure was measured indirectly (tail cuff) in unanesthetized, unheated spontaneously hypertensive rats (SHR) before and 2, 4, and 6 hours after p.o. dosing. Reduction in mean pressure by more than 10% (>10) at any two consecutive measurement times after dosing indicates antihypertensive activity.

mice [6] = test: Antiarrhythmic: chloroform-induced cardiac arrhythmia in mice; type: in vivo, mouse; details: for A = Antiarrythmic: mouse hearts fibrillating (of 3): 15 min. after a 200 mg/kg intraperitoneal dose, significance <2; for ED100: Mus musculus, ip, read-out: ED-100, antiarrhythmic
Procedure: ^2 A = Antiarrythmic. Less than 2/3 mouse hearts fibrillating 15 min.

rats [7] = test: Bradycardia: heart rate by EKG in rats; type: in vivo, rat; details: for inhibition in vivo at 5 mg/kg / ED100: Rattus norvegicus; for inhibition in vivo at 5 mg/kg: 0.75 h, 45 min. after a 5 mg/kg oral dose in rats, significance >10, read-out: B = Bradycardiac: percent decrease in heart rate; for ED100: po, rats, reference compounds, read-out: ED-100, bradycardia
Procedure: […] Decrease in heart rate by more than 10% (>10) is considered a bradycardic effect.
Percent decrease in heart rate 45 min. after a 5
mg/kg oral dose in rats.

N[C@@H]1C[C@H]1c1ccccc1 (relative stereo) [tranylcypromine]
ED100 (mice [1]): > 25 mg/kg

CC1(C)CCCC(C)(C)N1CC1=CC(=O)N(c2cccc(SC(F)(F)F)c2)C1 [Compound 2, N-[3'-trifluoromethylthiophenyl]-4-[2",2",6",6"tetramethylpiperidino]methylpyrrolid-3-en-2-one]
Acute toxicity / toxic effects (mice [2]): apparent absence | Autonomic effect / autonomic inhibition (mice [2]): apparent absence of autonomic effect | inhibition in vivo at 50 mg/kg (rats [3]): 38% | inhibition in vivo at 200 mg/kg [4]: 0% | inhibition in vivo at 100 mg/kg [5]: 14% | A = Antiarrythmic: mouse hearts fibrillating (of 3) (mice [6]): 3 | inhibition in vivo at 5 mg/kg (rats [7]): 6%

CC1(C)CCCC(C)(C)N1CC1=CC(=O)N(c2cc(C(F)(F)F)cc(C(F)(F)F)c2)C1 [Compound 3]
Autonomic effect / autonomic inhibition (mice [2]): No evidence of autonomic inhibition | inhibition in vivo at 50 mg/kg (rats [3]): 38% | inhibition in vivo at 200 mg/kg [4]: 0% | inhibition in vivo at 100 mg/kg [5]: 32% | Antihypertensive activity, duration ([5]; p.o.): perhaps of long duration | Antihypertensive activity, onset / comparison in words ([5]; p.o.): somewhat slow in onset | Dose with borderline antihypertensive result ([5]; p.o.): 10 mg/kg | A = Antiarrythmic: mouse hearts fibrillating (of 3) (mice [6]): 3 | inhibition in vivo at 5 mg/kg (rats [7]): 14%

CC1(C)CCCC(C)(C)N1CC1=CC(=O)N(c2ccc(F)cc2)C1 [Compound 5]
Autonomic effect / autonomic inhibition (mice [2]): absence of evidence of autonomic inhibition | inhibition in vivo at 50 mg/kg (rats [3]): 75% | Antiulcer effect, in words (rats [3]): noted at antihypertensive doses | inhibition in vivo at 200 mg/kg [4]: 0% | inhibition in vivo at 100 mg/kg [5]: 26% | Dose with borderline antihypertensive result ([5]; p.o.): 5 mg/kg | A = Antiarrythmic: mouse hearts fibrillating (of 3) (mice [6]): 0 | Antiarrhythmic effect, in words (mice [6]; mouse, in vivo): noted at antihypertensive doses | inhibition in vivo at 5 mg/kg (rats [7]): 24%

CC1(C)CCCC(C)(C)N1CC1=CC(=O)N(c2cccc([N+](=O)[O-])c2)C1 [Compound 11]
Autonomic effect / autonomic inhibition (mice [2]): absence | inhibition in vivo at 50 mg/kg (rats [3]): 25% | inhibition in vivo at 200 mg/kg [4]: 0% | inhibition in vivo at 100 mg/kg [5]: 27% | Antihypertensive activity, onset / comparison in words ([5]; p.o.): Mild, rather slow onset | A = Antiarrythmic: mouse hearts fibrillating (of 3) (mice [6]): 3 | inhibition in vivo at 5 mg/kg (rats [7]): 5% | Bradycardic effects, in words (rats [7]; rat, in vivo): absence of bradycardia

CC1(C)CCCC(C)(C)N1CC1=CC(=O)N(c2cccc(Br)c2)C1 [Compound 14]
inhibition in vivo at 50 mg/kg (rats [3]): 50% | Antiulcer effect, in words (rats [3]): activity appears to be weaker than with Compound 13 | inhibition in vivo at 200 mg/kg [4]: 5% | inhibition in vivo at 100 mg/kg [5]: 4% | A = Antiarrythmic: mouse hearts fibrillating (of 3) (mice [6]): 3 | inhibition in vivo at 5 mg/kg (rats [7]): 0%

C[C@H](CS)C(=O)N1CCC[C@H]1C(=O)O [captopril, reference compound]
ED100 ([5]; SHR, reference compounds): 100 mg/kg

CC1(C)[C@@H](OC(=O)CCC(=O)O)CC[C@]2(C)[C@H]3C(=O)C=C4[C@@H]5C[C@@](C)(C(=O)O)CC[C@]5(C)CC[C@@]4(C)[C@]3(C)CC[C@@H]12 [carbenoxolone, reference compound]
ED100 (rats [3]; rats, reference compounds): > 100 mg/kg

CNC1=Nc2ccc(Cl)cc2C(c2ccccc2)=[N+]([O-])C1 [chlordiazepoxide, reference compound]
ED100 (rats [3]): 100 mg/kg

CN(C)CCCN1c2ccccc2Sc2ccc(Cl)cc21 [chlorpromazine, reference compound]
ED100 (rats [3]): 20 mg/kg | ED100 (mice [1]): 2.5 mg/kg

CCOC(=O)C(C)(C)Oc1ccc(Cl)cc1 [clofibrate, reference compound]
ED100 ([4]; po, reference compounds, read-out: ED-100, hypocholesterolemic): 400 mg/kg

Clc1cccc(Cl)c1N=C1NCCN1 [clonidine, reference compound]
ED100 [5]: < 5 mg/kg | ED100 (rats [7]): 0.5 mg/kg

CNCCCN1c2ccccc2CCc2ccccc21 [desipramine]
ED100 (mice [1]): > 25 mg/kg

COc1ccc([C@@H]2Sc3ccccc3N(CCN(C)C)C(=O)[C@@H]2OC(C)=O)cc1 [diltiazem, reference compound]
ED100 (mice [6]; mice, reference compounds): 50 mg/kg | ED100 (rats [7]): 10 mg/kg

CC(C)N(CCC(C(N)=O)(c1ccccc1)c1ccccn1)C(C)C (stereo not shown) [disopyramide, reference compound]
ED100 (mice [6]; mice, reference compounds): 50 mg/kg

O=C(CCCN1CCC(O)(c2ccc(Cl)cc2)CC1)c1ccc(F)cc1 [haloperidol]
ED100 (mice [1]): 10 mg/kg

NNc1nncc2ccccc12 [hydralazine, reference compound]
ED100 [5]: 2.5 mg/kg

CN(C)CCCN1c2ccccc2CCc2ccccc21 [imipramine]
ED100 (mice [1]): 25 mg/kg

CC(CCc1ccccc1)NCC(O)c1ccc(O)c(C(N)=O)c1 (stereo not shown) [labetalol, reference compound]
ED100 ([5]; SHR, reference compounds): 50 mg/kg

CCN(CC)CC(=O)Nc1c(C)cccc1C [lidocaine, reference compound]
ED100 (mice [6]): 50 mg/kg

C[C@](N)(Cc1ccc(O)c(O)c1)C(=O)O [methyldopa, reference compound]
ED100 ([5]; SHR, reference compounds): 50 mg/kg

CCN(CC)CCNC(=O)c1cc(Cl)c(N)cc1OC [metoclopramide]
ED100 (mice [1]): > 100 mg/kg

Cc1cccc(C)c1OCC(C)N (stereo not shown) [mexilitine, reference compound]
ED100 (mice [6]; mice, reference compounds): 50 mg/kg

COC(=O)C1=C(C)NC(C)=C(C(=O)OC)C1c1ccccc1[N+](=O)[O-] [nifedipine, reference compound]
ED100 ([5]; SHR, reference compounds): 50 mg/kg | ED100 (mice [6]; mice, reference compounds): 25 mg/kg

Cc1ccc(N(CC2=NCCN2)c2cccc(O)c2)cc1 [phentolamine, reference compound]
ED100 ([5]; SHR, reference compounds): 25 mg/kg

CC(C)NCC(O)COc1cccc2[nH]ccc12 (stereo not shown) [pindolol, reference compound]
ED100 (mice [6]): 50 mg/kg

COc1cc2nc(N3CCN(C(=O)c4ccco4)CC3)nc(N)c2cc1OC [prazosin, reference compound]
ED100 ([5]; SHR, reference compounds): 1 mg/kg

CCN(CC)CCOC(=O)c1ccc(N)cc1 [procaine, reference compound]
ED100 (mice [6]): 100 mg/kg

CC(C)NCC(O)COc1cccc2ccccc12 (stereo not shown) [propranolol, reference compound]
ED100 (mice [6]): 40 mg/kg | ED100 (rats [7]): 40 mg/kg

NC(=S)Cc1ccccn1 [pyridyl-2-thioacetamide, reference compound]
ED-100, antiulcer (rats [3]; p.o., rats, reference compounds): 50 mg/kg

N=C(N)NN=Cc1c(Cl)cccc1Cl [quanabenz, reference compound]
ED100 [5]: < 6 mg/kg | ED100 (rats [7]): 2.5 mg/kg

C=CC1CN2CCC1CC2C(O)c1ccnc2ccc(OC)cc12 (stereo not shown) [qunidine, reference compound]
ED100 (mice [6]): 100 mg/kg

COC(=O)[C@H]1[C@H]2C[C@@H]3c4[nH]c5cc(OC)ccc5c4CCN3C[C@H]2C[C@@H](OC(=O)c2cc(OC)c(OC)c(OC)c2)[C@@H]1OC [reserpine, reference compound]
ED100 ([5]; SHR, reference compounds): 25 mg/kg | ED100 (rats [7]): 5 mg/kg

CCN1CCCC1CNC(=O)c1cc(S(N)(=O)=O)ccc1OC (stereo not shown) [sulpiride]
ED100 (mice [1]): > 100 mg/kg

CCn1c2c(c3ccccc31)CCSC2(C)CCN(C)C (stereo not shown) [tandamine]
ED100 (mice [1]): > 50 mg/kg

CSc1ccc2c(c1)N(CCC1CCCCN1C)c1ccccc1S2 (stereo not shown) [thioridazine]
ED100 (mice [1]): 10 mg/kg

COc1ccc(CCN(C)CCCC(C#N)(c2ccc(OC)c(OC)c2)C(C)C)cc1OC (stereo not shown) [verapamil, reference compound]
ED100 (mice [6]): 50 mg/kg

CS(=O)(=O)c1ccc(-c2cn3ccccc3n2)cc1 [zolimidine, reference compound]
ED100 (rats [3]; rats, reference compounds): > 100 mg/kg
